The values that follow come from ChEMBL document CHEMBL1157275, “Biological activities of 7-epiclusianone” (J Nat Prod, 1999).

Values after ≈ are worked out from the molar mass of the structure shown. Active and inactive are the calls of the source. No cut-off for these calls is given here.

The test system of data set [1] is Trypanosoma cruzi. Description: Antitrypanosomal activity against Trypanosoma cruzi Y trypomastigotes infected in Swiss albino mouse blood assessed as reduction of parasite number at 500 ug/mL after 24 hrs. Format: functional. Set-up: scale not given: the % may be the effect or the level left.
For data set [2], the system named is Trypanosoma cruzi. Kind of data set: Antitrypanosomal activity against Trypanosoma cruzi Y trypomastigotes infected in Swiss albino mouse blood assessed as reduction of parasite number at 250 ug/mL after 24 hrs. Format: functional. Set-up: scale not given: the % may be the effect or the level left.
The subject of data set [3] is Trypanosoma cruzi. Description: Antitrypanosomal activity against Trypanosoma cruzi Y trypomastigotes infected in Swiss albino mouse blood assessed as reduction of parasite number at 125 ug/mL after 24 hrs. Format: functional. Set-up: scale not given: the % may be the effect or the level left.
In data set [4] the test system is Clavibacter michiganensis subsp. michiganensis. Kind of data set: Antimicrobial activity against Clavibacter michiganensis subsp. michiganensis. It is filed as functional.
The test system of data set [5] is Listeria monocytogenes. Description: Antimicrobial activity against Listeria monocytogenes. Format: functional.
The subject of data set [6] is Staphylococcus aureus. Kind of data set: Antibacterial activity against Staphylococcus aureus. Format: functional.
Data set [7] is described as follows: Toxicity in Artemia salina. The note with it: in vivo. Format: organism-based.
For data set [8], the system named is Cladosporium sphaerospermum. Kind of data set: Antifungal activity against Cladosporium sphaerospermum. It is filed as functional, organism-based.
The subject of data set [9] is Biomphalaria glabrata. Kind of data set: Molluscicidal activity against Biomphalaria glabrata at 20 ppm. It is filed as functional, organism-based.
Data set [10] has as its system Trypanosoma cruzi. Description: Antitrypanosomal activity against Trypanosoma cruzi Y trypomastigotes infected in Swiss albino mouse assessed as reduction in parasitaemia at 500 mg/kg, po after 6 hrs. Set-up: dose 500 mg/kg. It is filed as functional, organism-based.
Data set [11] deals with Trypanosoma cruzi. Kind of data set: Antitrypanosomal activity against Trypanosoma cruzi Y trypomastigotes infected in Swiss albino mouse assessed as mortality rate at 100 mg/kg, po daily for 4 days assessed after 6 to 9 days. Format: functional, organism-based. Set-up: dose 100 mg/kg.

One may read the MIC as the least concentration at which growth counts as inhibited. In general, LC50 refers to the concentration that kills 50% of the test population. On to `CC(C)=CC[C@H]1C[C@]2(CC=C(C)C)C(=O)C(C(=O)c3ccccc3)=C(O)[C@](CC=C(C)C)(C2=O)C1(C)C`, for which the Activity in [1] came out at 92%; in data set [2] it was 38%; in data set [3], 17%. 4 µg/mL (≈ 7.96 µM) was the least that counted as inhibitory in data set [4] (MIC). The IC100 in [5] and in data set [6] was 80 µg/mL throughout. The 50% lethal concentration (LC50) in [7] was found to be 49.7 µM. In addition, the outcome in data set [8], in data set [9] and in data set [11] was inactive. In addition, the result in [10] was Active.
Regarding `O=C(Cn1ccnc1[N+](=O)[O-])NCc1ccccc1`, the outcome in [10] and in [11] was Active.
